Experimental data taken from PMC5156807, “Stabilized Polymer Micelles for the Development of IT-147, an Epothilone D Drug-Loaded Formulation” (Journal of Drug Delivery, 2016).
Where two headings read alike, the source gives them in different places.

How the values were obtained:
[1] = Stability of drug substance in pilot formulations (mass spectrometry); assay type: physicochemical
Source text: Epothilones B and D were selected for encapsulation using triblock copolymers. […] This was not completely surprising as stability of epothilone B both in vitro and in vivo has been addressed in the literature. Epothilone D, the alkene derivative of epothilone B (also known as desoxy-epothilone B), was selected as the preferred drug substance for encapsulation due to increased stability in aqueous environments and pH fluctuations. A small library of triblock copolymers was used to conduct pilot formulations of epothilone D drug-loaded micelles, with the ultimate goal to select IT-147, the lead for development of an epothilone D encapsulated polymer micelle formulation. Five of the polymers chosen for the library contained stabilizing blocks comprised of hydroxamic acid functionalized poly(glutamic acid), and five of the polymers contained poly(cysteine) amino acid moieties as stabilizing blocks (Figure 2, Table 1). All polymers contained a 12 kDa PEG and a mixture of hydrophobic amino acids with D and L isomers in the core block. Pilot formulations were characterized by determining formulation efficiency, epothilone D drug loading (% w/w), average particle diameter, and retention of epothilone D following dialysis above and below the critical micelle concentration (Table 1).

[2] = intraperitoneal bolus, mouse tumor models; cited from earlier work
[3] = Pilot toxicokinetic dose range-finding study in cannulated rat model; assay type: in vivo, Sprague-Dawley rats; settings: for Dose limiting Toxicities / average weight loss: rat, 20 mg/kg; for Dose limiting Toxicities: w.l. = weight loss; for average weight loss: four days
Description: The lead hydroxamic acid and cysteine containing formulations were compared to free epothilone D using a cannulated rat model by administering a 10 mg/kg dose by fast bolus to the jugular vein catheter. Female, Sprague-Dawley rats surgically modified with jugular vein catheters exteriorized posteriorly were purchased from Harlan Labs. Catheters were flushed and maintained with heparinized saline to ensure patency over the study period. The catheter port was used for both test article administration and blood collection. IT-147 pharmacokinetics at 20, 30, and 40 mg/kg were compared to epothilone D free drug at 20 mg/kg in the cannulated rat model. IT-147 was reconstituted in saline, while epothilone D free drug was reconstituted in cremaphor : ethanol : saline at 1 : 1 : 4 ratio. All in vivo studies were conducted under Institutional Guidelines. The Institutional Animal Care and Use Committee (IACUC), at the University of South Florida (USF), approved all rat in vivo study protocols. Animals were maintained and evaluated under pathogen-free conditions in accordance with USF College of Medicine IACUC standards of care. Approximately 300 μL of blood was collected into K2EDTA tubes containing PMSF (final concentration 2.5 mM) at time points of 1, 5, 15, and 60 minutes after test article administration. Samples were centrifuged at 2000 RPM for 5 minutes to isolate plasma. Plasma was aliquoted into microcentrifuge tubes and frozen at −20°C until processed for HPLC/UV analysis. The following bioanalytical method is a modification of the procedure originally developed by Yuan et al.. Bioanalytical sample preparation was performed by liquid : liquid extraction. 50 μL of plasma sample was added to 600 μL of n-butyl chloride and vortexed for 10 minutes. Samples were centrifuged at 10,000 RPM for 10 minutes and the organic supernatant was aliquoted into microcentrifuge tubes. The n-butyl chloride supernatant was evaporated to dryness using a turbovap with nitrogen flow at room temperature, and 75 μL of a 40% acetonitrile in water solution was added to each tube. Samples were then vortexed for 5 minutes, aliquoted into HPLC vials, and processed using HPLC methodology as described in Section 2.3. Blank rat plasma containing PMSF was used to spike in epothilone D for standard curve preparation and processed as described for the plasma samples to determine concentration of epothilone D isolated from the samples collected from the cannulated rats. Noncompartmental analysis of the pharmacokinetic data was done using Phoenix WinNonlin version 6.3.
A pilot dose range-finding toxicokinetic study in a cannulated rat model was performed to support future full scale toxicokinetic studies of IT-147. Doses of IT-147 at 20, 30 and 40 mg/kg were compared to epothilone D free drug at 20 mg/kg (Table 3, Figure 7) followed by monitoring of animal weight change, gross signs of clinical toxicity, and limited plasma sampling for pharmacokinetic analysis (Table 4). IT-147 was reconstituted in saline while epothilone D free drug was administered in a cremaphor : ethanol : saline mixture. Test articles were given by fast bolus to the rat jugular vein, and blood was collected at time points of 1 minute, 5 minutes, 15 minutes, 1 hour, 2 hours, 4 hours, and 6 hours. […] Samples collected after the 1-hour time point were below the limit of quantitation for analysis. […] It was concluded that 20 mg/kg epothilone D free drug was above the maximum tolerated dose for these animals. […] Animals were monitored for one week following test article administration. […] Animals were monitored for four days after test article administration and were euthanized on the fourth day due to welfare concerns. […] It was concluded that 40 mg/kg epothilone D from IT-147 was above the maximum tolerated dose for these animals.

[4] = Plasma pharmacokinetic screening of pilot formulations in cannulated rat model; assay type: in vivo, Sprague-Dawley rats; settings: rat plasma epothilone D, 10 mg/kg fast bolus jugular vein catheter
Description: The lead hydroxamic acid and cysteine containing formulations were compared to free epothilone D using a cannulated rat model by administering a 10 mg/kg dose by fast bolus to the jugular vein catheter. Female, Sprague-Dawley rats surgically modified with jugular vein catheters exteriorized posteriorly were purchased from Harlan Labs. Catheters were flushed and maintained with heparinized saline to ensure patency over the study period. The catheter port was used for both test article administration and blood collection. IT-147 pharmacokinetics at 20, 30, and 40 mg/kg were compared to epothilone D free drug at 20 mg/kg in the cannulated rat model. IT-147 was reconstituted in saline, while epothilone D free drug was reconstituted in cremaphor : ethanol : saline at 1 : 1 : 4 ratio. All in vivo studies were conducted under Institutional Guidelines. The Institutional Animal Care and Use Committee (IACUC), at the University of South Florida (USF), approved all rat in vivo study protocols. Animals were maintained and evaluated under pathogen-free conditions in accordance with USF College of Medicine IACUC standards of care. Approximately 300 μL of blood was collected into K2EDTA tubes containing PMSF (final concentration 2.5 mM) at time points of 1, 5, 15, and 60 minutes after test article administration. Samples were centrifuged at 2000 RPM for 5 minutes to isolate plasma. Plasma was aliquoted into microcentrifuge tubes and frozen at −20°C until processed for HPLC/UV analysis. […]
Stability of polymer micelles to dilution is one of the most important physiochemical characteristics for a formulation to be successful in vivo. […] The top two candidates from the pilot epothilone D formulations were evaluated, along with epothilone D free drug, using a cannulated rat model for pharmacokinetics. Selection of the lead epothilone D formulation, termed IT-147, was determined from the exposure of epothilone D to the plasma compartment by calculating the area under the concentration versus time curve (AUC) and maximum concentration (C max). […]

[5] = Dialysis stability / pH-dependent release assay; assay type: physicochemical; settings: 20 mg/mL, 3500 MWC, 10 mM phosphate buffer, 6 hours, room temperature; epothilone D retained
Description: Retention of the epothilone drug substance within the micelle formulation and the release profile of the drug substance over time, concentration, and pH were investigated using dialysis. Formulations were reconstituted at concentrations of 20 mg/mL and 0.2 mg/mL and placed in dialysis tubing with 3500 MWC pore size, which allows for retention of the micelles within the bag and release of the free drug from the bag into the reservoir. A volume of 3 mL of reconstituted formulation was placed into dialysis bags and then placed in a 300 mL reservoir containing 10 mM phosphate buffer and stirred for 6 hours at room temperature. HPLC assay for epothilone concentration of the formulation inside the bag was done before and after dialysis to determine the percentage of epothilone retained inside the dialysis bag over 6 hours. pH-dependent release was performed using 10 mM phosphate buffer at pH 3, 4, 5, 6, 7, 7.4, and 8 in the reservoirs during dialysis.

[6] = female, Sprague-Dawley, iv, rat plasma, 20 mg/kg epothilone D equivalent, fast bolus jugular vein

SMILES	stability of the drug substance (epoxide ring) under formulation conditions [1]	LD50 [2] [mg/kg]	maximum tolerated dose [2] [mg/kg]	maximum tolerated dose ([3]; cannulated rat, single fast bolus, epothilone D equivalent, listed as epothilone D free drug) [mg/kg]	Cmax [3, 6] [ng/mL]	clearance [3, 6] [mL/min/kg]	half-life ([3]; female, Sprague-Dawley, iv, terminal, rat plasma, 20 mg/kg epothilone D equivalent, fast bolus jugular vein) [min]	AUC(0–6 h) ([3]; rat plasma, 20 mg/kg epothilone D equivalent, fast bolus jugular vein) [h∗µg/mL]	Dose limiting Toxicities ([3]; 20 mg/kg epothilone D equivalent, listed as Epo D)	Dose limiting Toxicities ([3]; 20 mg/kg epothilone D equivalent, listed as Epothilone D free drug)	Dose limiting Toxicities ([3]; 20 mg/kg epothilone D equivalent, listed as epothilone D free drug)	average weight loss ([3]; listed as Epothilone D free drug) [%]	average weight loss ([3]; listed as epothilone D free drug)	concentration at 60 min ([4]; female, Sprague-Dawley, intravenous, 60 minutes, read-out: Clast) [ng/mL]	Cmax ([4]; female, Sprague-Dawley, intravenous, at 1 minute) [ng/mL]	AUC(0-1 h) [4] [h∗µg/mL]	Dialysis > CMC (% remaining) [5] [%]
C/C(=C\c1csc(C)n1)[C@@H]1C[C@@H]2O[C@]2(C)CCC[C@H](C)[C@H](O)[C@@H](C)C(=O)C(C)(C)[C@@H](O)CC(=O)O1 [epothilone B]	unstable to all experimental formulation conditions	0.6	0.3														
C/C1=C/C[C@@H](/C(C)=C/c2csc(C)n2)OC(=O)C[C@H](O)C(C)(C)C(=O)[C@H](C)[C@@H](O)[C@@H](C)CCC1 [epothilone D]			25	< 20	32200	40.2	18	8.3	>10% w.l. lethargy impaired gait orbital-bleeding	lethargy, impaired gait, orbital bleeding, porphyrin accumulation around the face, and disheveled fur	lethargy, gait impairment, and retro-orbital bleeding	12	greater than 10%	1600 ± 800	19700 ± 4100	5.2	15
